Results as given in article PMC9628480, “Discovery and structural characterization of chicoric acid as a SARS-CoV-2 nucleocapsid protein ligand and RNA binding disruptor” (Scientific Reports, 2022).
pIC50: −log10 of the molar value. Several values for one entry are separate records, joined by “and”; a condition that tells them apart may be missing. Equal entries are not always repeated. Where two headings read alike, the source gives them in different places. Numbered stars: 1 amine (or outer) side, 2 acyl side, 3 side chain; on linkers, the order of the positions; unused ones are H or OH. Bridge positions count the residues as written; N and C are the ends. Square brackets hold non-standard residues; d marks the D form. Peptide text beside a SMILES is read from it. * marks the point of attachment. hTyr(3S-OH,4S-OH,3'-OSO3H) = N[C@H](C(=O)O)[C@H](O)[C@@H](O)c1ccc(O)c(OS(=O)(=O)O)c1; Orn(4R-OH,5R-OH) = O=C([C@H](C[C@@H](O)[C@@H](O)N[*:3])N[*:1])[*:2]; Pro(3S-OH,4S-Me) = C[C@H]1CN[C@H](C(=O)O)[C@H]1O; X1 = CCCCCOc1ccc(-c2cc(-c3ccc(C(=O)*)cc3)no2)cc1; Gln(3R-OH) = NC(=O)C[C@@H](O)[C@H](N)C(=O)O; X2 = CC(C)CCCCCCCCC[C@H](CC(=O)[*:1])O[*:2]; Hyp = O=C(O)[C@@H]1C[C@@H](O)CN1

Columns and labels:
[1] = biological target: T1, SARS-CoV-2 N protein-RNA1 interaction (Severe acute respiratory syndrome coronavirus 2, UniProt P0DTC9); test: biochemical; assay type: binding; conditions: for loss in IC50 values in comparison to CA: single carboxylate at C1 versus CA
T1 construct: made in house; host or cells: Escherichia coli BL21 (DE3)

[2] = biological target: T1, SARS-CoV-2 N protein-RNA1 interaction; test: Primary FP HTS at 20 µM compound; assay type: binding; conditions: compound 20 µM
N protein-RNA1 complex = biological target: T2, N protein-RNA1 complex (Severe acute respiratory syndrome coronavirus 2, UniProt P0DTC9); assay type: binding, SARS-CoV-2; conditions: protein:compound 1:2 ratio
T2 construct: made in house; host or cells: Escherichia coli BL21 (DE3)

[3] = biological target: T3, SARS-CoV-2 N protein (full-length) (Severe acute respiratory syndrome coronavirus 2, UniProt P0DTC9); test: DLS aggregation assay of N protein; conditions: compound 20 µM, two-fold molar excess
T3 construct: made in house; host or cells: Escherichia coli BL21 (DE3)
Protocol: Aggregation assays were performed with the full-length N protein diluted to 10 µM in 50 mM sodium phosphate buffer, 100 mM NaCl (pH, 7.6), with subsequent addition of 20 µM of each test compounds or 1% DMSO used as diluent. […] Samples were evaluated by DLS in a ZetaSizer NanoS (Malvern) equipment, at 10 °C, using default parameters set by the equipment.

multiple human viruses = conditions: cited from earlier work
SARS-CoV-2 [4] = test: SARS-CoV-2 replication assay in Vero CCL81 cells (plaque assay); assay type: cell-based
SARS-CoV-2 [5] = test: SARS-CoV-2 replication assay in Calu-3 cells (plaque assay); assay type: cell-based
SARS-CoV-2 particles = test: Virucidal assay in Vero CCL-81 cells; assay type: cell-based; conditions: particles incubated with CA 25 or 100 µM for 1 h
SARS-CoV-2 [6] = conditions: cited from earlier work
[7] = IC50 for blocking the N protein-RNA1 interaction
[8] = read-out: IC50 for blocking the N protein-RNA1 interaction

Compound	pIC50 [1, 7]	other results
COc1cc(C(=O)NS(=O)(=O)c2ccccc2C)ccc1Cc1cn(C)c2ccc(NC(=O)OC3CCCC3)cc12 [Zafirlukast]	4.98	–
O=C(O)c1cc(O)c2c(c1)[C@H]([C@H]1c3cc(C(=O)O)cc(O)c3C(=O)c3c(O[C@@H]4O[C@H](CO)[C@@H](O)[C@H](O)[C@H]4O)cccc31)c1cccc(O[C@@H]3O[C@H](CO)[C@@H](O)[C@H](O)[C@H]3O)c1C2=O [Sennoside A]	5.24	–
Cc1cc(/C=C(\C#N)C(=O)Nc2cccc(Br)c2)c(C)n1-c1ccc(C(=O)O)cc1 [RNPA1000]	–	pIC50 [1, 8]: 5.02
C[C@@H](O)[C@H]1C(=O)N2C(C(=O)O)=C(S[C@@H]3CN[C@H](C(=O)Nc4cccc(C(=O)O)c4)C3)[C@H](C)[C@H]12 [Ertapenem sodium]	–	pIC50 [1, 8]: 4.86
CN(Cc1ccc(C(C)(C)C)cc1)Cc1cccc2ccccc12 [Butenafine]	4.80	–
O=C(/C=C/c1ccc(O)c(O)c1)O[C@@H]1CC(O)(C(=O)O)C[C@@H](OC(=O)/C=C/c2ccc(O)c(O)c2)C1O (some centres unmarked) [Isochlorogenic acid A, 3,5-dicaffeoylquinic acid]	–	pIC50 [1, 8]: 5.26; loss in IC50 values in comparison to CA [1]: ~ 10 fold
Tannic acid	–	pIC50 [1, 8]: 5.85
O=C(Nc1cccc2c(=O)cc(-c3nnn[nH]3)oc12)c1ccc(OCCCCc2ccccc2)cc1 [Pranlukast (hemihydrate), Pranlukast]	5.11	–
C[C@@H]1NC(=O)[C@@H]2CCCN2C(=O)[C@H](CC(N)=O)NC(=O)[C@@H]2CSSC[C@H](N)C(=O)N[C@H]3CSSC[C@H](NC1=O)C(=O)N[C@@H]([C@@H](C)O)C(=O)NCC(=O)N[C@H](C(=O)N[C@@H](Cc1ccc(O)cc1)C(=O)O)CSSC[C@H](NC(=O)[C@H](Cc1ccc(O)cc1)NC(=O)[C@H](CCC(=O)O)NC3=O)C(=O)N2 [Linaclotide] (H-CCEYCCNPACTGCY-OH; disulfide 1-6, 2-10, 5-13)	5.26	–
CCCCCCCCCCCCCCCc1cccc(O)c1C(=O)O [Anacardic Acid]	–	pIC50 [1, 8]: 5.11
CCCCCCO[C@@H](C)c1cccc(-c2csc(NC(=O)c3cc(Cl)c(/C=C(\C)C(=O)O)c(Cl)c3)n2)c1OC [Lusutrombopag]	5.22	–
O=C(/C=C/c1ccc(O)c(O)c1)O[C@H]1[C@H](O)C[C@](O)(C(=O)O)C[C@H]1OC(=O)/C=C/c1ccc(O)c(O)c1 [4,5-Dicaffeoylquinic acid]	–	pIC50 [1, 8]: 5.52; loss in IC50 values in comparison to CA [1]: ~ 10 fold
O=C(/C=C/c1ccc(O)c(O)c1)O[C@H](Cc1ccc(O)c(O)c1)C(=O)O [rosmarinic acid]	–	N protein-RNA1 disruption [2]: low
COc1ccc2c(O[C@@H]3C[C@H]4C(=O)N[C@]5(C(=O)NS(=O)(=O)C6CC6)C[C@H]5/C=C\CCCCN(C)C(=O)[C@@H]4C3)cc(-c3nc(C(C)C)cs3)nc2c1C [Simeprevir]	4.78	–
COc1ccc2cc(-c3cc(-c4cc(Cl)cc(Cl)c4)nn3[C@@H](C)c3ccc(C(=O)NCCC(=O)O)cc3)ccc2c1 [MK 0893]	4.84	–
Verteporfin	–	pIC50 [1, 8]: 4.97
O=C1O[C@H]2[C@@H]3OC(=O)c4cc(O)c(O)c(O)c4-c4c(O)c(O)c5oc(=O)c6c(c(O)c(O)c7oc(=O)c4c5c76)-c4c(cc(O)c(O)c4O)C(=O)OC[C@H]3OC(O)[C@@H]2OC(=O)c2cc(O)c(O)c(O)c2-c2c1cc(O)c(O)c2O (mixture of isomers) [Punicalagin]	6.15	binding affinity of the N protein to RNA1 in the presence of compound (N protein-RNA1 complex): significantly reduced; effect on hydrodynamic radius (Rh) / oligomeric state of the N protein (DLS) [3]: appears to cause N protein aggregation; in vitro antiviral potencies (multiple human viruses): low micromolar range
CC(C)CCCCCCCCC[C@@H]1CC(=O)N[C@@H](CCC(=O)O)C(=O)N[C@@H](CC(C)C)C(=O)N[C@H](CC(C)C)C(=O)N[C@@H](C(C)C)C(=O)N[C@@H](CC(=O)O)C(=O)N[C@H](CC(C)C)C(=O)N[C@@H](CC(C)C)C(=O)O1 [Surfactin] (EL[dL]VD[dL]L; linker N-C via X2)	4.95	–
L-Chicoric acid	–	antiviral activity at 25 and 100 µM (SARS-CoV-2 [4]): antiviral activity at 100 µM only; reduction in infectious viral load (SARS-CoV-2 [4]): tenfold; antiviral activity at 25 and 100 µM (SARS-CoV-2 [5]): antiviral activity at 100 µM only; reduction in infectious viral load (SARS-CoV-2 [5]): 100 fold; virucidal activity against SARS-CoV-2 (SARS-CoV-2 particles): slight virucidal activity
CCCCCCCCCCCC1=C(O)C(=O)C=C(O)C1=O [Embelin]	5.30	–
O=C(O)C[C@@H]1C(=O)O[C@H]2[C@H](OC(=O)c3cc(O)c(O)c(O)c3)[C@@H](OC(=O)c3cc(O)c(O)c4c3[C@H]1[C@H](O)C(=O)O4)[C@H](OC(=O)c1cc(O)c(O)c(O)c1)O[C@@H]2COC(=O)c1cc(O)c(O)c(O)c1 [Chebulinic acid]	–	in vitro antiviral potencies (multiple human viruses): low micromolar range

Compound	pIC50 [1, 7]	other results
O=C(O)c1cc(O)c(O)c(O)c1 [Gallic acid]	4.63	–
Oc1c(Cl)cc(Cl)c(Cl)c1Cc1c(O)c(Cl)cc(Cl)c1Cl [Hexachlorophene]	4.89	–
CCCCCCCC/C=C\CCCCCCCC(=O)O [Oleic acid]	4.80	–
COc1cc(C(=O)O)ccc1NC(=O)[C@@H]1N[C@@H](CC(C)(C)C)[C@](C#N)(c2ccc(Cl)cc2F)[C@H]1c1cccc(Cl)c1F [Idasanutlin]	5.19	–
Cc1cc2c(C(C)C)c(O)c(O)c(C=O)c2c(O)c1-c1c(C)cc2c(C(C)C)c(O)c(O)c(C=O)c2c1O [Gossypol acetic acid]	5.15	–
COc1ccc2c(c1)C=C1Cn3c-2c(C2CCCCC2)c2ccc(cc23)C(=O)NS(=O)(=O)N(C)CCOCCN(C)C1=O [TMC647055]	5.00	–
C[C@@H]1O[C@@H](O[C@@H]2[C@@H](O)[C@H](OCCc3ccc(O)c(O)c3)O[C@H](CO)[C@H]2OC(=O)/C=C/c2ccc(O)c(O)c2)[C@H](O)[C@H](O)[C@H]1O [verbascoside]	–	N protein-RNA1 disruption [2]: low
Oc1c(Cl)cc(Cl)cc1Sc1cc(Cl)cc(Cl)c1O [Bithionol]	4.64	–
O=C(NCc1ccc(Oc2ccccc2)cc1)c1nc(-c2cc(Br)c(O)c(Br)c2)no1 [IOWH-032]	–	pIC50 [1, 8]: 5.11
O=C(O[C@@H]1O[C@@H]2COC(=O)c3cc(O)c(O)c(O)c3-c3c(cc(O)c(O)c3O)C(=O)O[C@H]([C@H]1O)[C@@H]2O)c1cc(O)c(O)c(O)c1 [Corilagin]	5.62	–
Cc1ccc(C(=O)Nc2ccc(S(=O)(=O)O)c3cc(S(=O)(=O)O)cc(S(=O)(=O)O)c23)cc1NC(=O)c1cccc(NC(=O)Nc2cccc(C(=O)Nc3cc(C(=O)Nc4ccc(S(=O)(=O)O)c5cc(S(=O)(=O)O)cc(S(=O)(=O)O)c45)ccc3C)c2)c1 [Suramin]	6.10	concentration reported to inhibit SARS-CoV-2 infection in cell culture (SARS-CoV-2 [6]): 20 µM
CC(C)=CCOc1ccc(/C=C/C(=O)c2ccc(OCC=C(C)C)cc2OCC(=O)O)cc1 [Sofalcone]	4.73	–
CC1=NN(c2ccc(C)c(C)c2)C(=O)/C1=N\Nc1cccc(-c2cccc(C(=O)O)c2)c1O [Eltrombopag]	5.15 and 5.09	–
Cc1cc2c(C(C)C)c(O)c(O)c(C=O)c2c(O)c1-c1c(C)cc2c(C(C)C)c(O)c(O)c(C=O)c2c1O [(R)-(-)-Gossypol acetic acid]	–	pIC50 [1, 8]: 5.19
O=S(=O)(O)c1ccc(N=C2C=CC(=C(c3ccc(Nc4ccc(S(=O)(=O)O)cc4)cc3)c3ccc(Nc4ccc(S(=O)(=O)O)cc4)cc3)C=C2)cc1 [Methyl Blue]	–	pIC50 [1, 8]: 5.38
CCCCCOc1ccc(-c2cc(-c3ccc(C(=O)N[C@H]4C[C@@H](O)[C@@H](O)NC(=O)[C@@H]5[C@@H](O)[C@@H](C)CN5C(=O)[C@H]([C@H](O)CC(N)=O)NC(=O)[C@H]([C@H](O)[C@@H](O)c5ccc(O)c(OS(=O)(=O)O)c5)NC(=O)[C@@H]5C[C@@H](O)CN5C(=O)[C@H]([C@@H](C)O)NC4=O)cc3)no2)cc1 [Micafungin] (X1-[Orn(4R-OH,5R-OH)]T[Hyp][hTyr(3S-OH,4S-OH,3'-OSO3H)][Gln(3R-OH)][Pro(3S-OH,4S-Me)]; lactam 1-C)	4.98	–
O=c1ccc2[n+]([O-])c3ccc(O)cc3oc-2c1 [Resazurin]	4.98	–
CC(C)(Sc1cc(C(C)(C)C)c(O)c(C(C)(C)C)c1)Sc1cc(C(C)(C)C)c(OC(=O)CCC(=O)O)c(C(C)(C)C)c1 [Succinobucol]	5.09	–
O=C(OC[C@H]1O[C@@H](OC(=O)c2cc(O)c(O)c(O)c2)[C@H](OC(=O)c2cc(O)c(O)c(O)c2)[C@@H](OC(=O)c2cc(O)c(O)c(O)c2)[C@@H]1OC(=O)c1cc(O)c(O)c(O)c1)c1cc(O)c(O)c(O)c1 [Pentagalloylglucose]	4.94	–
O=C1OC[C@H]2OC(O)[C@H](O)[C@@H](O)[C@@H]2OC(=O)c2cc(O)c(O)c(O)c2-c2c(O)c(O)c3oc(=O)c4c(c(O)c(O)c5oc(=O)c2c3c54)-c2c1cc(O)c(O)c2O (mixture of isomers) [Punicalin]	6.15	in vitro antiviral potencies (multiple human viruses): low micromolar range
Cc1ccnc(NS(=O)(=O)c2ccc(N)cc2)n1 [Sulfamerazine]	5.19	–
